Columns and labels:
[1] = system: BCL-2 promoter (BCL-2-GQ) in MCF-7 cells; assay: Dual-luciferase assay, BCL-2 promoter with BCL-2-GQ; format: cell-based, human; conditions: MCF-7, 24 h, peptide 0–60 μM
Experimental: (§1) MCF-7 cells are sub-cultured into 24-well microtiter plates at a cell density of 1 × 10^5 cells/well. Reporter constructs (c-MYC, BCL-2, KRAS and VEGF-A) (500 ng) with and/or without the G-quadruplex scaffolds triggering the expression of Renilla luciferase are co-transfected with 50 ng of pGL3-control vectors (Promega) (used as internal control), encoding firefly luciferase into MCF-7 cells using Lipofectamine® 3000 transfection reagent (Thermo-Fisher Scientific) following manufacturer's recommendations (Supplementary information Section 1). Twenty four hours post-transfection, cells are treated with peptides (FK13, KR12A, KR12B, KR12C, KR12D and KR12E) at an increasing concentration gradient.
(§2) Dual-luciferase assays are performed to examine the intracellular selectivity of peptides for c-MYC quadruplex isomers (Pu27, Myc22 and Pu19) over other oncogenic quadruplexes (BCL-2, VEGF-A and KRAS) of different topologies. The role of peptide-quadruplex complex in oncogene promoter activation is investigated in contrast to the GQ-null promoter constructs into MCF-7 cells ([67]). After 24 h of peptide treatment, cells are washed and lysed into 100 μl 1× Passive lysis buffer (PLB) for 15 min at room temperature. Renilla and firefly Luciferase activities in 25 μl lysate are quantified by Dual-Luciferase® reporter assay system (Promega) as per manufacturer's recommendations. Renilla luciferase enzyme activity is normalized to that of the firefly luciferase activity and luminescence of the peptide-treated samples are normalized to the untreated ones, which yield the fold induction values for Renilla activities by different quadruplex structures in presence and absence of synthetic peptides. Luminescence of each sample is detected in GloMax® 20/20 Single-Tube Luminometer (Promega) in triplicates and averaged from three independent experiments.

[2] = system: c-MYC promoter with Pu19 isomer in MCF-7 cells; assay: Dual-luciferase assay, c-MYC promoter under control of Pu19; format: cell-based, human; conditions: MCF-7, 24 h peptide treatment
Experimental: as §1, §2

[3] = system: BCL-2, VEGF-A, KRAS transcripts in MCF-7 cells; assay: Real time PCR of other oncogene transcripts; format: cell-based, human; conditions: MCF-7, 24 h, qPCR
Experimental: To inspect the transcription inhibitory roles of peptides in c-MYC, BCL-2, VEGF-A and KRAS oncogenes having putative quadruplexes in their promoters, we performed real time polymerase chain reactions. MCF-7 cells are sub-cultured into 6-well microtiter plates at a density of 1 × 10^6 cells per well and treated with different concentrations of peptides (FK13, KR12A, KR12B and KR12C) for 24 hours. Total RNA is isolated from both untreated and treated cells using TRIzol method (Invitrogen) as per manufacturer's instructions. 2 μg of total RNA is processed for cDNA synthesis and reverse transcribed using a Super MuLV RT Kit (Biobharati Life Sciences Pvt. Ltd.). Real time PCR is performed using Maxima SYBR Green/ROX qPCR Master Mix (2×) (Thermo-Scientific) as per manufacturer's protocol. Housekeeping gene, GAPDH is used as an internal control to normalize the variability in c-MYC mRNA expression levels (Supplementary information Section 1). PCR primers are designed using Primer-BLAST, NCBI, and analyzed in OligoAnalyser 3.1-IDT (Supplementary Table S2).

[4] = system: RNAPII at c-MYC promoter in MCF-7 cells; assay: ChIP, RNA polymerase II occupancy at c-MYC promoter; format: cell-based, human; conditions: MCF-7, 24 h, ChIP-qPCR versus IgG control
Experimental: (§3) Chromatin immunoprecipitation studies are conducted to monitor the promoter occupancies of different transcription factors (Sp1, NM23-H2 and Nucleolin) and RNA polymerase II (RNAPII) on the region encompassing c-MYC-NHE III1 ([69]). We have grown MCF-7 cells in 10-cm^2 culture flask at a density of 1 × 10^6 cells per well and treated with the synthetic peptides (FK13, KR12A, KR12B, and KR12C) for 24 hours. Cells are cross-linked with 1% formaldehyde at room temperature for 10 min and the reaction is stopped by 0.125 M glycine at room temperature for 10 min. Fixed cells are lysed and sonicated to yield DNA fragments of 200–500 bp. ChIP-grade antibodies (NM23-H2 (L-15) Antibody (sc-14790, Santa Cruz), and Anti-Nucleolin antibody [4E2]-ChIP Grade (Abcam)), Anti Sp1 antibody (Sigma), and Rpb1 (RNAPII subunit b1) CTD (C-terminal domain) 4H8 antibody are added to the sonicated chromatin and incubated overnight at 4°C. Then, 10 μl protein A magnetic beads (Dynal, Invitrogen), previously washed in RIPA buffer are added to the samples and bead–protein complexes are washed thrice with RIPA buffer and twice with TE buffer. The genomic DNA is eluted for 2 h at 68°C in complete elution Buffer (20 mM Tris, pH 7.5, 5 mM EDTA, 50 mM NaCl, 1% SDS and 50 μg/ml proteinase K) and further combined with the DNA eluted from second elution for 10 min at 68°C in 100 μl of elution buffer (20 mM Tris, pH 7.5, 5 mM EDTA and 50 mM NaCl). ChIP-isolated DNA is purified using MinElute Purification kit (Qiagen) and is amplified by PCR (Polymerase Chain Reaction) reactions using forward and reverse primers ([70]) (Supplementary Table S4) specific to the quadruplex-enriched regions at c-MYC promoter and Phusion® High-Fidelity PCR Kit (NEB). Anti-rabbit IgG is employed for mock immunoprecipitation (Negative control).

[5] = system: Sp1 at c-MYC-NHE III1 in MCF-7 cells; assay: ChIP, Sp1 occupancy at c-MYC-NHE III1; format: cell-based, human; conditions: MCF-7, 24 h, ChIP-qPCR versus IgG control
Experimental: as §3

[6] = system: NM23-H2 at c-MYC-NHE III1 in MCF-7 cells; assay: ChIP, NM23-H2 occupancy at c-MYC-NHE III1; format: cell-based, human; conditions: MCF-7, 24 h, ChIP-qPCR versus IgG control
Experimental: as §3

[7] = system: Nucleolin at c-MYC-NHE III1 in MCF-7 cells; assay: ChIP, Nucleolin occupancy at c-MYC-NHE III1; format: cell-based, human; conditions: MCF-7, 24 h, ChIP-qPCR versus IgG control
Experimental: as §3

[8] = system: c-MYC quadruplex isomer Myc22; assay: CD melting of free and peptide-bound Myc22; format: binding, human
Experimental: To understand the role of peptides (FK13, KR12A, KR12B, KR12C, KR12D and KR12E) in stabilizing native and truncated isomers of c-MYC G-quadruplex, we have performed temperature-driven CD melting experiments for free and peptide-bound complexes in JASCO-J815 CD spectrometer. We have gradually titrated the peptides into 10 μM of putative quadruplexes and acquired the spectra after 5 min of peptide addition to allow complex formation and equilibration. Samples are heated from 20 to 95°C having the temperature gradient and the delay time of 2.5°C/min and 150 s respectively. Since the quadruplexes unfold at higher temperatures and revert back to their initial conformations upon renaturation, we have assumed a ‘two-state transition’ model (folded and unfolded) to analyze the melting curves and estimated the melting temperatures (Tm) by fitting the data points into sigmoidal curves (Supplementary information Section 1).

Substance | BCL-2 promoter activity [1] | c-MYC promoter activation under control of Pu19 [2] | transcription of other oncogenes (BCL-2, VEGF-A, KRAS) [3] | RNAPII occupancy at c-MYC promoter [4] | Sp1 occupancy at c-MYC-NHE III1 [5] | NM23-H2 occupancy at c-MYC-NHE III1 [6] | Nucleolin occupancy at c-MYC-NHE III1 [7] | rise in the Tm of Myc22 upon peptide binding ([8]; 10 μM quadruplex, two-state model) | c-MYC promoter attrition in presence of Pu19, fold [2] | depletion of the melting temperature of Myc22 upon peptide binding [8]
N – FKRIVQRIKDFLR – C [FK13] | significantly downregulate | attenuated | abrogated | did not significantly altered | no role | no role | no role |  |  | 
N – KRIVKLIKKWLR – C [KR12C] | no significant impact |  |  | significantly depleted | depleted | depleted | depleted | 6.91 °C | ~5 fold | 
N – KRIVKRIKKWLR – C [KR12B, dodecameric mutant peptide derived from FK13 / LL37] | inverse regulation | weaker |  | significantly depleted | no role in Sp1 occupancy | depleted the abundance | depleted the abundance |  |  | 
N – KRIVQRIKKWLR – C [KR12A, dodecameric mutant peptide derived from FK13 / LL37] | significantly downregulate | attenuated | abrogated | depleted RNAPII occupancy | slightly enriched | slightly enriched | did not significantly affect |  |  | ~30 °C

From article PMC6212778, “Site-specific amino acid substitution in dodecameric peptides determines the stability and unfolding of c-MYC quadruplex promoting apoptosis in cancer cells” (Nucleic Acids Research, 2018)
